The test system of one assay is NF-kB. The assay is described as follows: NF-kB reporter assay in Jurkat cells stimulated with aCD3/aCD28/PMA. Type of assay: cell-based. The settings on record: Homo sapiens, Jurkat, read-out: NF-kB Reporter Assay IC50. The gist of the method: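 Stimulation used final aCD3 5 μg/mL, aCD28 5 μg/mL and PMA 0.03 μg/mL for 4 hr at 37° C, after 1 hr compound pretreatment of 25,000 serum-starved Jurkat cells per well. One-Glo luminescence gave IC50 values.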

Another assay addresses T1, MALT1 (Homo sapiens, UniProt Q9UDY8).
T1 construct: Avi-tagged FL MALT-1 (Pharmaron, stored at −70° C.); Avi tag
T1 sequence (Q9UDY8 1-824): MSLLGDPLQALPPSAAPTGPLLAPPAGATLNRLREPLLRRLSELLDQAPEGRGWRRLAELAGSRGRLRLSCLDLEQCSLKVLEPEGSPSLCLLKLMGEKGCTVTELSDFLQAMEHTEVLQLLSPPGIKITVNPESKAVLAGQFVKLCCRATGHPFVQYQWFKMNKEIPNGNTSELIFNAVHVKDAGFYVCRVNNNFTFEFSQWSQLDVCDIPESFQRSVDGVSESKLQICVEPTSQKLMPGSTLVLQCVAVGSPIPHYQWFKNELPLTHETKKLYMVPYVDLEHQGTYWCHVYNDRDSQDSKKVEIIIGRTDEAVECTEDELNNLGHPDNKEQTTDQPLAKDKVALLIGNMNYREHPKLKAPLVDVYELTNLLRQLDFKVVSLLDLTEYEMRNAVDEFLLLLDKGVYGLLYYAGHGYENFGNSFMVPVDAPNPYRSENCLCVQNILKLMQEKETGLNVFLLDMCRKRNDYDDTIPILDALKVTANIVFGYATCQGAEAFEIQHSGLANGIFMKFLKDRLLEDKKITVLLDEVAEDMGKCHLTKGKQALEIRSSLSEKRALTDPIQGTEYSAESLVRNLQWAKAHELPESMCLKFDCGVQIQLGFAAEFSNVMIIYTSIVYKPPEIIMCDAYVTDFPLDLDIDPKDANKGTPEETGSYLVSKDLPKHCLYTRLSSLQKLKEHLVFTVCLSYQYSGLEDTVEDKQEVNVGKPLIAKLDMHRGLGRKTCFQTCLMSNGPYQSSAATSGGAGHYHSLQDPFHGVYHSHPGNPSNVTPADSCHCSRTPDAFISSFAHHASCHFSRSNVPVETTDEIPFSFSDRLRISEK
The assay is described as follows: MALT-1 Fluorogenic Peptide Cleavage Assay (MALT1 inhibition assay). Type of assay: biochemical. The settings on record: Avi-tagged FL MALT-1, Ac-LRSR-AMC peptide substrate, 30 min pre-incubation, 90 min reaction. In a few lines:
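IC50 from sigmoidal fits of % inhibition, with fluorescence (ex 342, em 441 nm) from AMC released from the quenched LRSR peptide after 90 min at room temperature. Full-length Avi-tagged MALT1 saw compound for 30 min first; final DMSO 2%.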

Where [1] appears, read: Jurkat cells, 1 hr compound incubation, aCD3/aCD28/PMA stimulation 4 hr, One-Glo readout.

Like-named read-outs stand apart in the source and are kept apart here.

One may read the IC50 as the concentration that gives 50% inhibition.

Regarding `CN(C)c1ncccc1-c1ccc(S(=O)(=O)Nc2cccc3cnn(C)c23)cn1` [Example I-221, 2′-(Dimethylamino)-N-(1-Methyl-1H-Indazol-7-yl)-[2,3′-Bipyridine]-5-Sulfonamide], the IC50 is 1 to 2.5 µM in the assay on NF-kB and over 2.5 µM against MALT1.

Turning to `COc1ccc2cnn(C)c2c1NS(=O)(=O)c1ccc(N2CCOC2=O)nc1` [Example I-222, N-(6-Methoxy-1-Methyl-1H-Indazol-7-yl)-6-(2-Oxooxazolidin-3-yl)Pyridine-3-Sulfonamide], the results for the IC50 in the assay with NF-kB (setting [1]) and at MALT1 were under 0.4 µM and over 2.5 µM, respectively.

With `COc1ccc2cnn(C)c2c1NS(=O)(=O)c1ccc(N2CC(C)(C)OC2=O)nc1` [Example I-223, 6-(5,5-Dimethyl-2-Oxooxazolidin-3-yl)-N-(6-Methoxy-1-Methyl-1H-Indazol-7-yl)Pyridine-3-Sulfonamide], the IC50 is under 0.4 µM with NF-kB (setting [1]) and over 2.5 µM at MALT1.

Take `Cn1ncc2cccc(NS(=O)(=O)c3ccc(N4CC(C)(C)OC4=O)nc3)c21` [Example I-224, 6-(5,5-Dimethyl-2-Oxooxazolidin-3-yl)-N-(1-Methyl-1H-Indazol-7-yl)Pyridine-3-Sulfonamide]: the IC50 was under 0.4 µM in the assay with NF-kB (setting [1]) and over 2.5 µM at MALT1.

Consider `COc1ccc2cnn(C)c2c1NS(=O)(=O)c1ccc(N2CCN(C)C2=O)nc1` [Example I-225, N-(6-Methoxy-1-Methyl-1H-Indazol-7-yl)-6-(3-Methyl-2-Oxoimidazolidin-1-yl)Pyridine-3-Sulfonamide], for which the IC50 in the assay with NF-kB (setting [1]) is under 0.4 µM; at MALT1, 0.4 to 1 µM.

As for `CN1CCN(c2ccc(S(=O)(=O)Nc3cccc4cnn(C)c34)cn2)C1=O` [Example I-226, N-(1-Methyl-1H-Indazol-7-yl)-6-(3-Methyl-2-Oxoimidazolidin-1-yl)Pyridine-3-Sulfonamide], the IC50 in the assay on NF-kB (setting [1]) is under 0.4 µM; on MALT1, over 2.5 µM.

For the compound `Cn1ncc2cccc(NS(=O)(=O)c3ccc(-n4ncc5c4CCCC5)nc3)c21` [Example I-227, N-(1-Methyl-1H-Indazol-7-yl)-6-(4,5,6,7-Tetrahydro-1H-Indazol-1-yl)Pyridine-3-Sulfonamide], the IC50 in the assay on NF-kB (setting [1]) is under 0.4 µM; on MALT1, 1 to 2.5 µM.

In the case of `Cn1cc(-c2ccc(S(=O)(=O)Nc3cccc4cnn(C)c34)cn2)nc1C(F)(F)F` [Example I-228, N-(1-Methyl-1H-Indazol-7-yl)-6-(1-Methyl-2-(Trifluoromethyl)-1H-Imidazol-4-yl)Pyridine-3-Sulfonamide], the IC50 was under 0.4 µM with NF-kB (setting [1]) and 1 to 2.5 µM against MALT1.

As for `[2H]C([2H])([2H])n1ncc2ccc(OC)c(NS(=O)(=O)c3ccc(-n4cc(C5CC5)cn4)nc3)c21` [Example I-229, 6-(4-Cyclopropyl-1H-Pyrazol-1-yl)-N-(6-Methoxy-1-(Methyl-D3)-1H-Indazol-7-yl)Pyridine-3-Sulfonamide], the IC50 in the assay on NF-kB (setting [1]) and against MALT1 was under 0.4 µM in each case.

Take `Cn1ncc2cccc(NS(=O)(=O)c3ccc(N4CCOC4=O)nc3)c21` [Example I-230, N-(1-Methyl-1H-Indazol-7-yl)-6-(2-Oxooxazolidin-3-yl)Pyridine-3-Sulfonamide]: the IC50 in the assay on NF-kB (setting [1]) and on MALT1 was over 2.5 µM in each case.

With `COCCn1ncc2cccc(NS(=O)(=O)c3ccc(-n4ccc(C5CC5)n4)nc3)c21` [Example I-231, 6-(3-Cyclopropyl-1H-Pyrazol-1-yl)-N-(1-(2-Methoxyethyl)-1H-Indazol-7-yl)Pyridine-3-Sulfonamide], the IC50 in the assay on NF-kB (setting [1]) and on MALT1 was over 2.5 µM each time.

Take `COCCn1ncc2cccc(NS(=O)(=O)c3ccc(-n4nccc4C(C)C)nc3)c21` [Example I-232, 6-(5-isopropyl-1H-pyrazol-1-yl)-N-(1-(2-methoxyethyl)-1H-indazol-7-yl)pyridine-3-sulfonamide]: the IC50 in the assay with NF-kB (setting [1]) and on MALT1 was over 2.5 µM in each case.

As for `Cn1ncc2cccc(NS(=O)(=O)c3ccc(-n4cc5c(n4)CCCC5)nc3)c21` [Example I-233, N-(1-methyl-1H-indazol-7-yl)-6-(4,5,6,7-tetrahydro-2H-indazol-2-yl)pyridine-3-sulfonamide], the IC50 in the assay with NF-kB (setting [1]) is under 0.4 µM; at MALT1 it was 0.4 to 1 µM.

For `Cn1c(-c2ccc(S(=O)(=O)Nc3cccc4cnn(C)c34)cn2)cnc1C(F)(F)F` [Example I-234, 6-[3-methyl-2-(trifluoromethyl)imidazol-4-yl]-N-(1-methylindazol-7-yl)pyridine-3-sulfonamide], the IC50 in the assay with NF-kB was under 0.4 µM; against MALT1, over 2.5 µM.

For `COc1ncc2cnn(C)c2c1NS(=O)(=O)c1ccc(N2C[C@@](O)(C(F)(F)F)CC2=O)nc1` [Example I-235, (R)-6-(4-hydroxy-2-oxo-4-(trifluoromethyl)pyrrolidin-1-yl)-N-(6-methoxy-1-methyl-1H-pyrazolo[4,3-c]pyridin-7-yl)pyridine-3-sulfonamide], the IC50 in the assay on NF-kB (setting [1]) was 0.4 to 1 µM; at MALT1 it was under 0.4 µM.

Regarding `COc1ncc2cnn(C)c2c1NS(=O)(=O)c1ccc(N2C[C@](O)(C(F)(F)F)CC2=O)nc1` [Example I-236, (S)-6-(4-hydroxy-2-oxo-4-(trifluoromethyl)pyrrolidin-1-yl)-N-(6-methoxy-1-methyl-1H-pyrazolo[4,3-c]pyridin-7-yl)pyridine-3-sulfonamide], the IC50 in the assay on NF-kB (setting [1]) was over 2.5 µM; at MALT1 it was 0.4 to 1 µM.

As to `COc1ccc2cnn(C)c2c1NS(=O)(=O)c1ccc(-n2cc(C)[nH]c2=O)nc1` [Example I-237, N-(6-methoxy-1-methyl-1H-indazol-7-yl)-6-(4-methyl-2-oxo-2,3-dihydro-1H-imidazol-1-yl)pyridine-3-sulfonamide], the IC50 in the assay with NF-kB (setting [1]) and on MALT1 was under 0.4 µM in each case.

Consider `CCOC(=O)c1cnn(-c2ccc(S(=O)(=O)Nc3c(OC)ccc4cnn(C)c34)cn2)c1C` [Example I-238, ethyl 1-{5-[(6-methoxy-1-methylindazol-7-yl)sulfamoyl]pyridin-2-yl}-5-methylpyrazole-4-carboxylate], for which the IC50 in the assay on NF-kB (setting [1]) and at MALT1 was under 0.4 µM in each case.

As to `COc1ccc2cnn(C)c2c1NS(=O)(=O)c1ccc(-c2nc(C)nn2C)nc1` [Example I-239, 6-(1,3-dimethyl-1H-1,2,4-triazol-5-yl)-N-(6-methoxy-1-methyl-1H-indazol-7-yl)pyridine-3-sulfonamide], the results for the IC50 in the assay with NF-kB (setting [1]) and against MALT1 were over 2.5 µM and 1 to 2.5 µM, respectively.

Turning to `COc1ccc2c(F)nn(C)c2c1NS(=O)(=O)c1ccc(-n2cc(Cl)cn2)nc1` [Example I-240, 6-(4-chloro-1H-pyrazol-1-yl)-N-(3-fluoro-6-methoxy-1-methyl-1H-indazol-7-yl)pyridine-3-sulfonamide], the IC50 with NF-kB (setting [1]) and on MALT1 was under 0.4 µM each time.

For `Cn1ncc2cccc(NS(=O)(=O)c3ccc(-c4cnc(C(F)F)s4)nc3)c21` [Example I-241, 6-(2-(difluoromethyl)thiazol-5-yl)-N-(1-methyl-1H-indazol-7-yl)pyridine-3-sulfonamide], the values for the IC50 in the assay with NF-kB and on MALT1 were under 0.4 µM and 0.4 to 1 µM, respectively.

In the case of `COc1ccc2cnn(C)c2c1NS(=O)(=O)c1ccc(-n2ncc(CO)c2C)nc1` [Example I-242, 6-[4-(hydroxymethyl)-5-methylpyrazol-1-yl]-N-(6-methoxy-1-methylindazol-7-yl)pyridine-3-sulfonamide], the results for the IC50 with NF-kB (setting [1]) and on MALT1 were under 0.4 µM and 0.4 to 1 µM, respectively.

Consider `COc1ncc(-c2ccc(S(=O)(=O)Nc3cccc4cnn(C)c34)cn2)s1` [Example I-243, 6-(2-methoxythiazol-5-yl)-N-(1-methyl-1H-indazol-7-yl)pyridine-3-sulfonamide], for which the IC50 in the assay on NF-kB was under 0.4 µM; against MALT1 it was over 2.5 µM.

On to `Cn1ncc2cccc(NS(=O)(=O)c3ccc(-c4cnc(N5CCOCC5)s4)nc3)c21` [Example I-244, N-(1-methyl-1H-indazol-7-yl)-6-(2-morpholinothiazol-5-yl)pyridine-3-sulfonamide], for which the IC50 was under 0.4 µM in the assay on NF-kB and over 2.5 µM at MALT1.

`Cn1ncc2cccc(NS(=O)(=O)c3ccc(-n4ncc5c4CCOC5)nc3)c21` [Example I-245, N-(1-methylindazol-7-yl)-6-{4H,6H,7H-pyrano[4,3-c]pyrazol-1-yl}pyridine-3-sulfonamide]: the results for the IC50 in the assay on NF-kB (setting [1]) and on MALT1 were under 0.4 µM and over 2.5 µM, respectively.

The values above are taken from patent US20240150365A1 (Hotspot Therapeutics, Inc., priority 2022, published 2024).
